The target of data set [1] is T1, recombinant human 5-HT6 receptor (Homo sapiens, UniProt P50406).
T1 construct: expressed in transfected cells; membranes
Briefly: Radioligand binding, [3H]LSD competition, membranes of HEK293 cells expressing 5-HT6. To be noted: HEK293 cell membranes, pH 7.4, 37° C., 75 min, read-out: pKi for 5-HT6 (converted). The protocol: (§1) The binding activity of compounds of this invention in vitro was determined as follows. Duplicate determinations of 5-HT6 ligand affinity were made by competing for binding of [^3H]LSD in cell membranes derived from HEK293 cells stably expressing recombinant human 5-HT6 receptor. Duplicate determinations of 5-HT2A ligand affinity were made by competing for binding of [^3H]Ketanserin (3-(2-(4-(4-fluorobenzoyl)piperidinol)ethyl)-2,4(1H,3H)-quinazolinedione) in cell membranes derived from CHO-K1 cells stably expressing recombinant human 5-HT2A receptor. Membranes were prepared from HEK 293 cell lines by the method described by Monsma et al., Molecular Pharmacology, Vol. 43 pp. 320-327 (1993), and from CHO-K1 cell lines as described by Bonhaus et al., Br J Pharmacol. June; 115(4):622-8 (1995).
(§2) For estimation of affinity at the 5-HT6 receptor, all determinations were made in assay buffer containing 50 mM Tris-HCl, 10 mM MgSO4, 0.5 mM EDTA, 1 mM ascorbic acid, pH 7.4 at 37° C., in a 250 microliter reaction volume. […]
(§3) Assay tubes containing [^3H] […] LSD or [^3H]Ketanserin were determined as radioactive counts per minute using Packard TopCount.
(§4) Displacement of [^3H]LSD or [^3H]Ketanserin from the binding sites was quantified by fitting concentration-binding data to a 4-parameter logistic equation: […]

For data set [2], the target named is T2, recombinant human 5-HT2A receptor (Homo sapiens, UniProt P28223).
T2 construct: expressed in transfected cells; membranes
Briefly: Radioligand binding, [3H]Ketanserin competition, membranes of CHO-K1 cells expressing 5-HT2A. To be noted: CHO-K1 cell membranes, pH 7.4, 32° C., 60 min, read-out: pKi for 5-HT2A (converted). The protocol:
as §1, §2, §3, §4

Molecules are shown by their SMILES. Counter-ions that a name gives are not always drawn.

T2 sequence (P28223 whole entry): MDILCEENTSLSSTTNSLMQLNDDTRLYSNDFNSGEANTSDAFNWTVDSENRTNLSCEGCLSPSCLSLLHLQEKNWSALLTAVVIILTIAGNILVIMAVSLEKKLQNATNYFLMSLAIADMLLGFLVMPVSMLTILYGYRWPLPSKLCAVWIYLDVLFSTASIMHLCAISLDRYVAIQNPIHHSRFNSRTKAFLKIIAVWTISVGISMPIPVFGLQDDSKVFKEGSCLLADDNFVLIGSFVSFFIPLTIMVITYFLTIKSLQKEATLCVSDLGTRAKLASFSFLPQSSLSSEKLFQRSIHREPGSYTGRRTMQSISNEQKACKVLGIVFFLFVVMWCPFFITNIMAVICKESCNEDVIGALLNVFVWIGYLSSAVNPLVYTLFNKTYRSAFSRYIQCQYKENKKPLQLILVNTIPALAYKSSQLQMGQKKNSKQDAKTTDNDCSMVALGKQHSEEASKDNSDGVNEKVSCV
T1 sequence (P50406 whole entry): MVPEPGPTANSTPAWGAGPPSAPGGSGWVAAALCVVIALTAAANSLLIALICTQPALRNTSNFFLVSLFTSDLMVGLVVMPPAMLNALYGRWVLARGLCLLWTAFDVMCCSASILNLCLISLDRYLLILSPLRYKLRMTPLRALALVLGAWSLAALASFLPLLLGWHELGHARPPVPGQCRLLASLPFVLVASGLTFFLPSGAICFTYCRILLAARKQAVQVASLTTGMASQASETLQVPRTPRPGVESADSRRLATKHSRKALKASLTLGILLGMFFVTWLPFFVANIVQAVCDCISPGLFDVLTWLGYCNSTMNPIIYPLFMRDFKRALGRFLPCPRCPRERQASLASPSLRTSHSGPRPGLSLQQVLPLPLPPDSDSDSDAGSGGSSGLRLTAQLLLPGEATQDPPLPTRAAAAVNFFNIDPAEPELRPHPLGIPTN

For the compound `O=S(=O)(c1ccccc1)c1ccc2c(c1)OCCC2N1CCNCC1` (stereo not drawn) [Compound 1, 1-(7-Benzenesulfonyl-chroman-4-yl)-piperazine], the Ki in data set [1] was around 0.417 nM; in data set [2], around 46.8 nM.
In the case of `O=S(=O)(c1ccccc1)c1ccc2c(c1)OCCC2N1CCNCC1` (stereo not drawn) (as salt: HCl) [Compound 1, 1-(7-Benzenesulfonyl-chroman-4-yl)-piperazine], the melting point (commonly the temperature of the solid-liquid transition) lay within 243 to 249 °C.

These data come from US7528250B2, “Chroman derivatives and uses thereof” (Roche Palo Alto LLC, priority 2004, dated 2009).
